Measured values reported in patent US4387059A, “Ureylenebis substituted (or unsubstituted) phenylene-carbonyl (or sulfonyl)-imino-1,3,5 or 6-naphthalene-trisulfonic acids and salts” (American Cyanamid Company, priority 1981, dated 1983).
Structures can show the parent of a compound that is named as a salt.

Legend:
complement = test: in vivo complement inhibition in guinea pig (GPIP test), capillary complement assay of sera; settings: Intravenous, i.p. 200 mg/kg
[1] = tested on: late components of human complement (C3-C9); test: Test Code 035 (C3-C9 inhibitor): lysis of EAC 142 by late components of human complement; format: cell-based; settings: serial twofold dilution assay, higher well number indicates higher activity
Excerpt: (§1) An active inhibitor protects C2 from C1 and C4; (ii) Test Code 035 (C3-C9 inhibitor)--This test determines the ability of the late components of human complement (C3-C9) to lyse EAC 142 in the presence of appropriate dilutions of the test compound. An active inhibitor protects EAC 142 from lysis by human C3-C9; (iii) Test Code 036 (C-Shunt inhibitor)--In this test human erythrocytes rendered fragile are lysed in autologous serum via the shunt pathway activated by cobra venom factor in the presence of appropriate dilutions of the test compound. Inhibition of the shunt pathway results in failure of lysis; (iv) Cap 50 Test--Here, appropriate amounts of the test compound are added to a pool of guinea pig serum in vitro, after which the complement level is determined in undiluted serum by the serum capillary tube assay of U.S. Pat. No. 3,876,376. The concentration of compound inhibiting 50% is reported; and (v) Guinea Pig Intraperitoneal Test (GPIP)--Guinea pigs weighing about 300 g are dosed intraperitoneally (i.p.) with 200 mg/kg of the test compound dissolved in saline and adjusted to pH 7-8. […] Percent inhibition is calculated by comparison with simultaneous controls. […]

human C1 = test: Test Code 026 (C1 inhibitor): ability of activated human C1 to destroy fluid phase human C2 in the presence of C4; format: biochemical; settings: serial twofold dilution assay, higher well number indicates higher activity
Excerpt: as §1

shunt pathway = test: Test Code 036 (C-Shunt inhibitor): lysis of fragile human erythrocytes in autologous serum via shunt pathway activated by cobra venom factor; format: cell-based; settings: serial twofold dilution assay, higher well number indicates higher activity
Excerpt: as §1

complement system = settings: Br. J. Exp. Pathol. 33: 327 (1952); cited from earlier work
[2] = literature reports; cited from earlier work
[3] = tested on: total hemolytic complement activity (human serum); settings: in vitro and in vivo, Pathol. Biol. 25 (1977); cited from earlier work

O=C(Nc1ccc(C(=O)Nc2ccc(C(=O)Nc3ccc(C(=O)Nc4cc(S(=O)(=O)O)cc5cc(S(=O)(=O)O)cc(S(=O)(=O)O)c45)c(S(=O)(=O)O)c3)c(S(=O)(=O)O)c2)c(S(=O)(=O)O)c1)Nc1ccc(C(=O)Nc2ccc(C(=O)Nc3ccc(C(=O)Nc4cc(S(=O)(=O)O)cc5cc(S(=O)(=O)O)cc(S(=O)(=O)O)c45)c(S(=O)(=O)O)c3)c(S(=O)(=O)O)c2)c(S(=O)(=O)O)c1 [8,8'-Ureylenebis[tris[(2-sulfo-p-phenylenecarbonyl)imino]]-di-1,3,6-naphthalenetrisulfonic acid, dodecasodium salt]
in vivo Activity (Guinea Pig) % Inhibition (complement; Time 2 Minutes): 95%
in vivo Activity (Guinea Pig) % Inhibition (complement; Time 30 Minutes): 54%
in vivo Activity (Guinea Pig) % Inhibition (complement; Time 120 Minutes): 14%
in vitro Activity C-Late 035* Wells [1]: +2 Wells
in vitro Activity C1 026* Wells (human C1): +5 Wells

O=C(Nc1cccc(S(=O)(=O)Nc2cccc(S(=O)(=O)Nc3cccc(S(=O)(=O)Nc4cc(S(=O)(=O)O)cc5cc(S(=O)(=O)O)cc(S(=O)(=O)O)c45)c3)c2)c1)Nc1cccc(S(=O)(=O)Nc2cccc(S(=O)(=O)Nc3cccc(S(=O)(=O)Nc4cc(S(=O)(=O)O)cc5cc(S(=O)(=O)O)cc(S(=O)(=O)O)c45)c3)c2)c1 [8,8'-[Ureylenebis[[[[[[[(m-phenylenesulfonyl)imino]-m-phenylene]sulfonyl]imino]-m-phenylene]sulfonyl]-imino]]-1,3,6-naphthalenetrisulfonic acid, hexasodium salt]
in vitro Activity C-Late 035* Wells [1]: +4 Wells
in vitro Activity C1 026* Wells (human C1): +4 Wells
in vitro Activity C-Shunt Inhibition 036* Wells (shunt pathway): +1 Wells

Nc1ccc2cc(S(=O)(=O)[O-])cc(O)c2c1N=Nc1ccc(NC(=O)Nc2ccc(N=Nc3c(N)ccc4cc(S(=O)(=O)[O-])cc(O)c34)c(S(=O)(=O)[O-])c2)cc1S(=O)(=O)[O-].[Na+].[Na+].[Na+].[Na+] [chlorazol fast pink, 3,3'-ureylenebis[6-(2-amino-8-hydroxy-6-sulfo-1-naphthylazo)benzenesulfonic acid], tetrasodium salt]
anti-complementary effect (complement system): anti-complementary effect

NCCCCCC(=O)O [epsilon-aminocaproic acid]
treatment of hereditary angioneurotic edema [2]: used with success in the treatment of hereditary angioneurotic edema

NC[C@H]1CC[C@H](C(=O)O)CC1 [tranexamic acid]
treatment of hereditary angioneurotic edema [2]: used with success in the treatment of hereditary angioneurotic edema

heparin
anti-complementary effect (complement system): anti-complementary effect

pentosanpolysulfoester
anticomplementary activity (reduction in total hemolytic complement activity) [3]: anticomplementary activity on human serum, both in vitro and in vivo
